# Reference: patent US6121512A, “Cytochrome P-450 constructs and method of producing herbicide-resistant transgenic plants” (North Carolina State University, priority 1997, dated 2000)
# Experiments:
# [1] = system: wild-type SR1 plants and pBI121-transformed control tobacco plants; test: Herbicide tolerance, seeds germinated on herbicide medium, control tobacco; format: in vivo, Nicotiana tabacum cv SR1; conditions: 1.0 μM chlortoluron in medium
# Method: T1 generation seeds from CYP71A10-transformed tobacco and pBI121-transformed control plants were placed onto Petri dishes containing MS salts and linuron (using its commercial formulation LOROX 50 DF) at active ingredient concentrations ranging from 0.25 to 3.0 μM. Chlortoluron was added at 0, 1.0, 5.0 and 10.0 μM concentrations using a 99.5% pure analytical standard. The Petri dishes were incubated in a growth chamber maintaining a constant temperature of 27° C. and a 16/8 hour light/dark cycle. The phytotoxic effects of the treatments were determined visually by comparison to control plants and plants grown in the absence of the herbicide. All treatments were repeated at least twice.
# [2] = biological target: T1, soybean CYP71A10 (Glycine max, UniProt O48918); test: In vitro herbicide metabolism assay and enzyme kinetics, microsomes of yeast expressing CYP71A10; format: biochemical
# T1 construct: microsomes of yeast W(R) overexpressing endogenous P450 reductase
# T1 sequence (O48918 1-513): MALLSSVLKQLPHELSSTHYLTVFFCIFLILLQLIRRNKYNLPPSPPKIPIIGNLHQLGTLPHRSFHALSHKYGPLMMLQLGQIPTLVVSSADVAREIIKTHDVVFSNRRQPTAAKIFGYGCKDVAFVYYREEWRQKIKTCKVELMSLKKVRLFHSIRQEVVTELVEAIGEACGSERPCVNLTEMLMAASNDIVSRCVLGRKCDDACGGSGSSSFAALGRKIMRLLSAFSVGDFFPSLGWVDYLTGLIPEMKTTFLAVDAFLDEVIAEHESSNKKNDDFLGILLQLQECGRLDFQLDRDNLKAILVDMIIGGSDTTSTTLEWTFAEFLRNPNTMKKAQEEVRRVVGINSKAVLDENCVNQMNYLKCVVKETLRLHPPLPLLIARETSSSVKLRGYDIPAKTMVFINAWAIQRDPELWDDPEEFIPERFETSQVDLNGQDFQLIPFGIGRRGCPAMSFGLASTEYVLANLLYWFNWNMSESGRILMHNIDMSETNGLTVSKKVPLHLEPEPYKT
# T1 sequence (P16603 1-691 partner): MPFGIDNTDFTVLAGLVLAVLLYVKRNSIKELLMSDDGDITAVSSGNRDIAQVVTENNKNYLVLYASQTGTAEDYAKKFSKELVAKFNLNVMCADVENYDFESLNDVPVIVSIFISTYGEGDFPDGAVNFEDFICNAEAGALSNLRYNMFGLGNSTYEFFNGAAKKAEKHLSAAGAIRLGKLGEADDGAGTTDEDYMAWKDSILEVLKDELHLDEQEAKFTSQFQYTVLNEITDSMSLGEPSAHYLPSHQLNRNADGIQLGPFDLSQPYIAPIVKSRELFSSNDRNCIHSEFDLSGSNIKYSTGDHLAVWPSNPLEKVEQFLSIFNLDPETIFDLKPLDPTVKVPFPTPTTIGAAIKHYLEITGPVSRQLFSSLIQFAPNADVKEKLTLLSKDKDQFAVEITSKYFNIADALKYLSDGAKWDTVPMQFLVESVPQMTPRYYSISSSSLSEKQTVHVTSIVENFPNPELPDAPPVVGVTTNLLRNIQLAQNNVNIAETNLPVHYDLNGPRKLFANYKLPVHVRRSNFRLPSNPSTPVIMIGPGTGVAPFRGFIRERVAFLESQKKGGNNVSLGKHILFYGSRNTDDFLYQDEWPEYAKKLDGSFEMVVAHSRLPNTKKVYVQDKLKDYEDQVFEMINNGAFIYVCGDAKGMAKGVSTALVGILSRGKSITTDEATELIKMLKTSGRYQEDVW
# Method: Yeast transformation was performed as described by Geitz et al., Nucleic Acids Research 20:1425 (1992). Media composition, culturing conditions, galactose induction, and microsomal preparations were conducted according to Pompon et al., Methods Enzymol. 272:51-64 (1995), using a culture volume of 250 ml. Microsomal protein was quantified spectrophotometrically using the method of Waddell, J. Lab. Clin. Med. 48:311-314 (1956), using bovine albumin as a standard. Dithionite-reduced, carbon monoxide difference spectra was obtained as previously outlined (Estabrook and Werringloer, Methods Ennzmol. 52:212-220 (1978)) using a Shimadzu Recording Spectrophotometer UV-240 (Shimadzu, Kyoto, Japan). P-450 protein concentrations of yeast microsomes were calculated using a millimolar extinction coefficient of 91 (Omura and Sato, J. Biol. Chem., 239:2370-2378 (1964)).
# Yeast microsomes enriched for a discrete soybean P-450 isozyme were assayed for their capacity to metabolize the ten herbicides and one insecticide listed in Table 3. The reaction mixtures contained 10,000 DPM (100-200 ng) radiolabeled substrate, 0.75 mM NAPDH, 2.5 mg/ml microsomal protein. Total reaction volumes were adjusted to 150 μl with 50 mM phosphate buffer (pH 7.1). The mixtures were incubated under light for 45 minutes at 27° C., arrested with 50 μl acetone and centriftiged at 14 000×g for 2 minutes. […] Radiolabeled bentazon and imazaquin-containing samples were spotted onto 200 micron Whatman LKC18F silica gel reversed-phase plates. All plates were developed in a benzene/acetone 2:1 (v/v) solvent system with the exception of prosulfaron, developed in toluene/acetone/acetic acid, 75:20:5 (v/v/v), and bentazon and imazaquin, developed in methanol/75 mM sodium acetate 40:60 (v/v). The developed plates were scanned with a Bioscan System 400 imaging scanner (Bioscan, Washington, D.C.), and the production of metabolites was determined based on the chromatographic profiles. For microsomes containing the expressed CYP71A10 enzyme, control experiments were also conducted to measure the NADPH-dependency, and the inhibitory effects of CO. CO treatment of the sample was achieved by gentle bubbling of the gas through the reaction mixture for 2 minutes immediately before the assay was initiated by the addition of NADPH.
# Substrate conversion was quantified by a combination of TLC analysis and scintillation spectrometry. The location of the metabolic products on the TLC plates was identified using an imaging scanner, the bands were scraped and analyzed by scintillation spectrometry. The amount of metabolite produced was calculated based on specific activity and scintillation counts. Each assay was repeated at least twice. Km and Vmax values were estimated using nonlinear regression analysis.
compound,measurement,setting,value
"Cc1ccc(NC(=O)N(C)C)cc1Cl [Chlortoluron, chlortoluron]",growth of the control plants,[1],completely arrested
same,metabolites formed from the radiolabeled herbicide (TLC),"[2]; 45 minutes at 27° C., 0.75 mM NADPH, 2.5 mg/ml microsomal protein",two (a major and a minor) metabolites
same,Turnover,"[2]; yeast microsomes containing CYP71A10, standard error in parentheses",0.7 (0.05) min^-1
